Laboratory results as given in US10905739B2, “Peptidomimetic macrocycles and formulations thereof” (AILERON THERAPEUTICS, INC., priority 2014, dated 2021).
pEC50, pIC50: −log10 of the molar value. Values after ≈ are worked out from the molar mass of the structure shown. Read-outs that look alike come from different tables or passages of the source. Bridge positions count the residues as written; N and C are the ends. Square brackets hold non-standard residues; d marks the D form. Peptide text beside a SMILES is read from it. dPhe(4-CF3) = N[C@H](Cc1ccc(C(F)(F)F)cc1)C(=O)O; Phe(4-F) = N[C@@H](Cc1ccc(F)cc1)C(=O)O; R8 = C=CCCCCCC[C@@](C)(N)C(=O)O; S8 = C=CCCCCCC[C@](C)(N)C(=O)O; R5 = C=CCCC[C@@](C)(N)C(=O)O; hLeu = CC(C)CC[C@H](N)C(=O)O; S5 = C=CCCC[C@](C)(N)C(=O)O; Nle = CCCC[C@H](N)C(=O)O; Aib = CC(C)(N)C(=O)O

Assays:
[1] = target: MDM2 (Homo sapiens, UniProt Q00987); assay: MDM2 binding IC50/Ki (in vitro displacement, fluorescence polarization)
[2] = Aqueous solubility (turbidity of solution); format: physicochemical
Method: In some embodiments, the peptidomimetic macrocycle or pharmaceutically acceptable salt thereof is not precipitated in the formulation. In some embodiments, an aqueous solubility of the peptidomimetic macrocycle is determined by evaluating the turbidity of a solution comprising the peptidomimetic macrocycle. In some embodiments, the peptidomimetic macrocycle or pharmaceutically acceptable salt thereof has an amphipathicity that falls in a range that is optimal for cell permeability.
In some embodiments, a peptidomimetic macrocycle with enhanced cell penetrability can be prepared based on solubility of the polypeptide, for example if the prepared peptidomimetic macrocycle is determined to be soluble based on visual examination of the turbidity of a solution of the polypeptide.

[3] = test system: SJSA-1 cells; assay: SJSA-1 sarcoma cell killing / cell viability; format: cell-based; conditions: 10% serum
[4] = test system: Influenza A Virus H1N1 California/07/2009; conditions: Virus California/07/2009
[5] = test system: Raji Cell; conditions: read-out: Raji Cell Viability EC50; 5% serum, 48 hr
Method: The efficacy of certain peptidomimetic macrocycles is determined, for example, in cell-based killing assays using a variety of tumorigenic and non-tumorigenic cell lines and primary cells derived from human or mouse cell populations. […] Several standard assays that measure cell viability are commercially available and are optionally used to assess the efficacy of the peptidomimetic macrocycles. In addition, assays that measure Annexin V and caspase activation are optionally used to assess whether the peptidomimetic macrocycles kill cells by activating the apoptotic machinery. For example, the Cell Titer-glo assay is used which determines cell viability as a function of intracellular ATP concentration.

[6] = target: MCL-1 (Homo sapiens, UniProt Q07820); assay: biochemical
Excerpt: To assess the binding and affinity of compounds that antagonize the interaction between a peptide and an acceptor protein, a fluorescence polarization assay (FPA) utilizing a fluoresceinated peptidomimetic macrocycle derived from a peptidomimetic precursor sequence is used, for example. The FPA technique measures the molecular orientation and mobility using polarized light and fluorescent tracer. […] A compound that antagonizes the interaction between the fluoresceinated peptidomimetic macrocycle and an acceptor protein will be detected in a competitive binding FPA experiment.
Antagonist binding activity is measured, for example, by fluorescence polarization on a luminescence spectrophotometer (e.g. Perkin-Elmer LS50B). Kd values can be determined by nonlinear regression analysis using, for example, Graphpad Prism software (GraphPad Software, Inc., San Diego, Calif.).

[7] = target: BCL-XL (Homo sapiens, UniProt Q07817); assay: BCL-XL binding IC50
Excerpt: In one aspect, the present invention provides novel peptidomimetic macrocycles that are useful in competitive binding assays to identify agents which bind to the natural ligand(s) of the proteins or peptides upon which the peptidomimetic macrocycles are modeled. For example, in the BH3/BCL-XL anti-apoptotic system labeled peptidomimetic macrocycles based on BH3 can be used in a BCL-XL binding assay along with small molecules that competitively bind to BCL-XL. Competitive binding studies allow for rapid in vitro evaluation and determination of drug candidates specific for the BH3/BCL-XL system. The invention further provides for the generation of antibodies against the peptidomimetic macrocycles. In some embodiments, these antibodies specifically bind both the peptidomimetic macrocycle and the BH3 peptidomimetic precursors upon which the peptidomimetic macrocycles are derived. Such antibodies, for example, disrupt the BH3/BCL-XL systems, respectively.

Chain of BCL-XL (Q07817 whole entry): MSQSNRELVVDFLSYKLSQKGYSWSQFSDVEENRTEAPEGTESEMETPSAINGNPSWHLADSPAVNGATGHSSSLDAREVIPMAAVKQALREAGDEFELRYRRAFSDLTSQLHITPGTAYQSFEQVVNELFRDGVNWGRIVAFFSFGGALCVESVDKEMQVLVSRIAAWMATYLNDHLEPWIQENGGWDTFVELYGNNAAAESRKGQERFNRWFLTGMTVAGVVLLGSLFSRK
Chain of MCL-1 (Q07820 whole entry): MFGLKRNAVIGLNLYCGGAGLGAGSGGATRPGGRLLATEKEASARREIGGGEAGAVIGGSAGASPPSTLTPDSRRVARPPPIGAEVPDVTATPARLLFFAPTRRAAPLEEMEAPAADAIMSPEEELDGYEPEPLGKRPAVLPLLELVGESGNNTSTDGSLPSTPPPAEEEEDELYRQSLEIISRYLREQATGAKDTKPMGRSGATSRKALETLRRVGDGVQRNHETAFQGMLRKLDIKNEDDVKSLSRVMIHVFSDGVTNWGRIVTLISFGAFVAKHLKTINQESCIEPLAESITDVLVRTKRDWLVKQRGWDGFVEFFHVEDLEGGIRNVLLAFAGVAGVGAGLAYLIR
Chain of MDM2 (Q00987 whole entry): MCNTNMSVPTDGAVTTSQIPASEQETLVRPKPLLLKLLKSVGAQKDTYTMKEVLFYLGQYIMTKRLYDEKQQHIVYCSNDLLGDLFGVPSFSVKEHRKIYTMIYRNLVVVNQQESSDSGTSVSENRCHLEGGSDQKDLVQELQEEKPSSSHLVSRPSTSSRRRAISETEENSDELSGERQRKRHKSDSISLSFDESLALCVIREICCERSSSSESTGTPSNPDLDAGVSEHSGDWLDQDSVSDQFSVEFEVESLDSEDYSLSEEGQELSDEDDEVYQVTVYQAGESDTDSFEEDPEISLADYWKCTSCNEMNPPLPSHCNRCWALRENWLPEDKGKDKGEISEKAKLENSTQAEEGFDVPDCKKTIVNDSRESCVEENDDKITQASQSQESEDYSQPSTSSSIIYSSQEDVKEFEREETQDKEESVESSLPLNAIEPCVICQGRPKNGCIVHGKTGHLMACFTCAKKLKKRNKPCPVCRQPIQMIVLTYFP

Structure (SMILES): CCCC[C@H](NC(=O)[C@H](C)NC(=O)[C@H](C)NC(=O)[C@]1(C)CCCC=CCCCCCC[C@@](C)(NC(=O)[C@H](Cc2ccccc2)NC(=O)[C@@H](NC(=O)[C@H](CC(C)C)NC(C)=O)[C@@H](C)O)C(=O)N[C@@H](C)C(=O)N[C@@H](Cc2ccc(O)cc2)C(=O)N[C@@H](Cc2c[nH]c3ccccc23)C(=O)N[C@@H](C)C(=O)N[C@@H](CCC(N)=O)C(=O)N[C@@H](CC(C)C)C(=O)N1)C(=O)N[C@@H](C)C(N)=O [SP68]
- pIC50 [1]: 7.54
- solubility ([2]; aqueous solution, read-out: Solubility): 3 mg/mL (≈ 1690 µM)
- pEC50 ([3]; 72 hr (Table 1d)): 5.95

Structure (SMILES): CC(=O)N[C@@H](CC(C)C)C(=O)N[C@H](C(=O)N[C@@H](Cc1ccccc1)C(=O)NC1(C)CCCCCCC=CCCCC(C)(C(=O)N[C@@H](C)C(=O)N[C@@H](C)C(=O)N[C@@H](C)C(=O)N[C@@H](C)C(=O)N[C@@H](C)C(=O)N[C@@H](C)C(=O)N[C@H](C)C(N)=O)NC(=O)[C@H](CC(C)C)NC(=O)[C@H](CCC(N)=O)NC(=O)[C@H](C)NC(=O)[C@H](Cc2c[nH]c3ccccc23)NC(=O)[C@H](Cc2ccc(O)cc2)NC(=O)[C@H](C)NC1=O)[C@@H](C)O (stereo partly drawn) [SP317]
- solubility ([2]; read-out: Solubility): 5 mg/mL (≈ 2570 µM)

Structure (SMILES): CC(=O)N[C@@H](CC(C)C)C(=O)N[C@H](C(=O)N[C@@H](Cc1ccccc1)C(=O)N[C@]1(C)CCCCCCC=CCCC[C@@](C)(C(=O)N[C@@H](C)C(N)=O)NC(=O)[C@H](CC(C)C)NC(=O)[C@H](CCC(N)=O)NC(=O)[C@H](C)NC(=O)[C@H](Cc2c[nH]c3ccccc23)NC(=O)[C@H](Cc2ccc(O)cc2)NC(=O)[C@H](C)NC1=O)[C@@H](C)O [SP590, Ac-LTF$r8AYWAQL$A-NH2] (Ac-LTF[R8]AYWAQL[S5]A-NH2; staple 4-11)
- solubility [2]: ≤ 1 mg/mL
- pEC50 ([3]; 72 hr (Table 1d)): 5.22

Structure (SMILES): CC(=O)N[C@@H](C(=O)N[C@H](C)C(=O)N[C@H](Cc1c[nH]c2ccccc12)C(=O)N[C@H](Cc1ccc(O)cc1)C(=O)N[C@@]1(C)CCCCCCC=CCCC[C@](C)(C(=O)N[C@H](C)C(N)=O)NC(=O)[C@@H](CC(C)C)NC(=O)[C@@H](CC(C)C)NC(=O)[C@@H](CCCCN)NC(=O)[C@@H](CCC(=O)O)NC(=O)[C@@H](Cc2ccc(C(F)(F)F)cc2)NC(=O)[C@@H](CC(N)=O)NC1=O)[C@H](C)O [SP757, Ac-tawy$s8nf4CF3ekll$r5a-NH2] (Ac-[dT][dA][dW][dY][S8][dN][dPhe(4-CF3)][dE][dK][dL][dL][R5][dA]-NH2; staple 5-12)
- pEC50 ([3]; 72 hr (Table 1f)): 5.82

Structure (SMILES): CC(=O)N[C@@H](C(=O)N[C@H](C)C(=O)N[C@H](Cc1c[nH]c2ccccc12)C(=O)N[C@H](Cc1ccc(O)cc1)C(=O)N[C@H](C)C(=O)N[C@H](CC(N)=O)C(=O)N[C@H](Cc1ccccc1)C(=O)N[C@H](CCC(=O)O)C(=O)N[C@H](CCCCN)C(=O)N[C@H](CC(C)C)C(=O)N[C@H](CC(C)C)C(=O)N[C@H](CCCNC(=N)N)C(N)=O)[C@H](C)O [SP778, Ac-tawyanfekllr-NH2, reference compound] (Ac-[dT][dA][dW][dY][dA][dN][dF][dE][dK][dL][dL][dR]-NH2)
- pEC50 ([3]; 72 hr (Table 1f)): < 4.52

Structure (SMILES): CCCC[C@H](NC(C)=O)C(=O)N[C@@H](CC(=O)O)C(=O)N[C@H](C(=O)N[C@@H](CC(N)=O)C(=O)N[C@@]1(C)CCCC=CCCC[C@@](C)(C(=O)N[C@@H](CC(C)C)C(=O)N[C@@H](C)C(=O)N[C@H](C(=O)NC(C)(C)C(=O)N[C@@H](C)C(=O)N[C@@H](CCC(N)=O)C(N)=O)C(C)C)NC(=O)[C@H](CC(C)C)NC(=O)[C@H](CC(C)C)NC(=O)[C@H]([C@@H](C)O)NC1=O)C(C)C [SP786] (Ac-[Nle]DVN[S5]TLL[S5]LAV[Aib]AQ-NH2; staple 5-9; C-terminus assumed)
- pEC50 [4]: 4.64

Structure (SMILES): CCCC[C@H](NC(C)=O)C(=O)N[C@@H](CC(=O)O)C(=O)N[C@H](C(=O)N[C@@H](CC(N)=O)C(=O)N[C@]1(C)CCCCCCC=CCCC[C@@](C)(C(=O)N[C@@H](C)C(=O)N[C@@H](C)C(=O)N[C@@H](CCC(N)=O)C(N)=O)NC(=O)[C@H](C)NC(=O)[C@H](CC(C)C)NC(=O)[C@H](Cc2ccccc2)NC(=O)[C@H](CC(C)C)NC(=O)[C@H](CC(C)C)NC(=O)[C@H]([C@@H](C)O)NC1=O)C(C)C [SP798] (Ac-[Nle]DVN[R8]TLLFLA[S5]AAQ-NH2; staple 5-12)
- pEC50 [4]: 5.35

Structure (SMILES): CC[C@H](C)[C@H](NC(C)=O)C(=O)N[C@@H](Cc1c[nH]c2ccccc12)C(=O)N[C@H](C(=O)N[C@@H](C)C(=O)N[C@@H](CCC(N)=O)C(=O)N[C@@H](C)C(=O)N[C@@H](CC(C)C)C(=O)N[C@@H](CCCNC(=N)N)C(=O)N[C@]1(C)CCCCCCC=CCCC[C@@](C)(C(=O)N[C@@H](Cc2ccc(O)cc2)C(=O)N[C@@H](Cc2ccc(O)cc2)C(=O)N[C@@H](C)C(=O)N[C@@H](CCCNC(=N)N)C(=O)N[C@@H](CCCNC(=N)N)C(N)=O)NC(=O)[C@H](CC(N)=O)NC(=O)[C@H](Cc2ccccc2)NC(=O)[C@H](CCC(=O)O)NC(=O)[C@H](CC(=O)O)NC(=O)CNC(=O)[C@H]([C@@H](C)CC)NC1=O)[C@@H](C)CC [SP809] (Ac-IWIAQALR[R8]IGDEFN[S5]YYARR-NH2; staple 9-16)
- pEC50 [5]: < 4.52
- pIC50 [6]: 7.97
- pIC50 [7]: 8.41

Structure (SMILES): CC[C@H](C)[C@H](NC(C)=O)C(=O)N[C@@H](Cc1c[nH]c2ccccc12)C(=O)N[C@H](C(=O)N[C@@H](C)C(=O)N[C@@H](CCC(N)=O)C(=O)N[C@@H](CCC(=O)O)C(=O)N[C@@H](CC(C)C)C(=O)N[C@@H](CCCNC(=N)N)C(=O)N[C@]1(C)CCCCCCC=CCCC[C@@](C)(C(=O)N[C@@H](Cc2ccc(O)cc2)C(=O)N[C@@H](Cc2ccc(O)cc2)C(=O)N[C@@H](C)C(=O)N[C@@H](CCCNC(=N)N)C(=O)N[C@@H](CCCNC(=N)N)C(N)=O)NC(=O)[C@H](CC(N)=O)NC(=O)[C@H](Cc2ccccc2)NC(=O)[C@H](CCC(=O)O)NC(=O)[C@H](CC(=O)O)NC(=O)CNC(=O)[C@H]([C@@H](C)CC)NC1=O)[C@@H](C)CC [SP810]
- pEC50 [5]: < 4.52
- pIC50 [7]: 8.04

Structure (SMILES): CC[C@H](C)[C@H](NC(C)=O)C(=O)N[C@@H](Cc1c[nH]c2ccccc12)C(=O)N[C@H](C(=O)N[C@@H](C)C(=O)N[C@@H](CCC(N)=O)C(=O)N[C@@H](C)C(=O)N[C@@H](CC(C)C)C(=O)N[C@@H](CCCNC(=N)N)C(=O)N[C@]1(C)CCCCCCC=CCCC[C@@](C)(C(=O)N[C@@H](Cc2ccc(O)cc2)C(=O)N[C@@H](Cc2ccc(O)cc2)C(=O)N[C@@H](C)C(N)=O)NC(=O)[C@H](CC(N)=O)NC(=O)[C@H](Cc2ccccc2)NC(=O)[C@H](C)NC(=O)[C@H](CC(=O)O)NC(=O)CNC(=O)[C@H]([C@@H](C)CC)NC1=O)[C@@H](C)CC [SP815] (Ac-IWIAQALR[R8]IGDAFN[S5]YYA-NH2; staple 9-16)
- pEC50 [5]: 5.18
- pIC50 [6]: 8.08
- pIC50 [7]: 7.65

Structure (SMILES): CC[C@H](C)[C@H](NC(C)=O)C(=O)N[C@@H](Cc1c[nH]c2ccccc12)C(=O)N[C@H](C(=O)N[C@@H](C)C(=O)N[C@@H](CCC(N)=O)C(=O)N[C@@H](C)C(=O)N[C@@H](CC(C)C)C(=O)N[C@@H](CCCNC(=N)N)C(=O)N[C@]1(C)CCCCCCC=CCCC[C@@](C)(C(=O)N[C@@H](Cc2ccc(O)cc2)C(=O)N[C@@H](Cc2ccc(F)cc2)C(=O)N[C@@H](C)C(N)=O)NC(=O)[C@H](CC(N)=O)NC(=O)[C@H](Cc2ccccc2)NC(=O)[C@H](C)NC(=O)[C@H](CC(=O)O)NC(=O)CNC(=O)[C@H](CCC(C)C)NC1=O)[C@@H](C)CC [SP962] (Ac-IWIAQALR[R8][hLeu]GDAFN[S5]Y[Phe(4-F)]A-NH2; staple 9-16)
- pEC50 [5]: 6.15
- pIC50 [6]: 7.57
- pIC50 [7]: 7.89
